Consider 8 compounds from US5856358A, “Mono- and disulfo-substituted anthraquinones and their use for the treatment of bone matrix disorders” (priority 1995, dated 1999).

One data set deals with T1, human cathepsin L (Homo sapiens, UniProt P07711).
T1 construct: purchased Calbiochem
Put plainly: Effects on human cathepsin L enzymatic activity. The class given is biochemical. The method, then: (§1) Effects on human cathepsin B and L enzymatic activity
(§2) The anthraquinone monosulfonated and disulfonated compounds were dissolved in distilled water whereas the derivatives thereof were dissolved in dimethylsulfoxide. The concentration of the tested product was added to the reaction mixture in a volume of 100 μl.
(§3) Composition of the reaction mixture: 0.005M acetate buffer pH 6.0+2 mM cysteine+1 mM EDTA; Enzyme 1 U/ml (cathepsin B or L) (Calbiochem); substrate 0.2 mM Z-Phe-Arg-AMC (Novabiochem) final reaction volume 2 ml; temperature 25° C.; observation time for cathepsin B: 2 minutes; for L: 8 minutes. This is a fluorimetric determination wherein the excitation wavelength was 380 nm, the emission one being instead 460 nm. Fluorescence was read by means of a Perkin-Elmer spectrophotometer mod. LS-3B.

Data set [1] relates to copper "scavenging" of superoxide anion produced by the hypoxanthine/xanthine oxidase system. The data set can be described thus: Copper "scavenging" effect (superoxide anion from hypoxanthine/xanthine oxidase system, cytochrome C). The class given is biochemical. Conditions: for % Reduction (effect on copper "scavenging" action): hypoxanthine/xanthine oxidase, cytochrome c.
Text: The study involves the production of superoxide anion by means of the hypoxanthine/xanthine oxidase system and the target is the reduction in cytochrome C iron content. […] Copper chelants inhibit such a "scavenging" effect.

In another data set the target is T2, human cathepsin B (Homo sapiens, UniProt P07858).
T2 construct: purchased Calbiochem
The data set can be described thus: Effects on human cathepsin B enzymatic activity. The class given is biochemical. The method, then:
as §1, §2, §3
Anthraquinone-2,6-disulfonic acid: 1-5-10 μM
Anthraquinone-1,5-disulfonic acid: 1-5-10 μM
N,N'-(p-Ethoxyphenyl)-2,6-anthraquinone-disulfonamide: 1-10 μM.

A short description of data set [2]: Adjuvant arthritis (Freund's complete adjuvant) in the rat: paw volume, radiography, histology. The format is in vivo, rat (albino Sprague Dawley). Conditions: for Volume increase in the oedema after 15 days, left paw / Volume increase in the oedema after 15 days, right paw: 20 mg/kg/os; for Volume increase in the oedema after 15 days, left paw: left (adjuvant-injected) rear paw, control 252 ± 26; for Volume increase in the oedema after 15 days, right paw: right rear paw, control 77 ± 29. The method, then:
The test evaluates the effect of the compounds anthraquinone-2,6-disulfonicacid and N,N'-diethylanthraquinone-2,6-disulfonamide on rheumatoid arthritis in the rat induced by administration of complete Freund's adjuvant. Diacetylrhein was used as control.
For the test, albino Sprague Dawley rats weighing 200±10 g, were subdivided into four groups of six animals each. All of the compounds were administered orally at a dosage of 20 mg/kg. Arthritis was induced administering all the animals, in the left rear paw, with 5 mg of Freund's complete adjuvant suspended in 0.05 ml of paraffin oil (prior to the treatment, the paw volume of both rear paws was measured). The treatment with the tested products started 5 days after the arthritis induction and was carried out for ten days. Al the end of this time, the animals were killed to effect the analysis of the following evaluation parameters: measurement of the volume of both left and right rear paws; Rx in lateral and antero-posterior position of the tibio-tarsal articulation of the left paw; histology evaluation of the articulation of both left and right rear paws.

For data set [3], the system named is Chinese hamster ovary (CHO) cells. The data set can be described thus: Test of induction of chromosomal aberrations. The class given is cell-based. Conditions: for Metaphases with aberrations: + S-9; for Aberrations complex (C) / Aberrations simple (S) / Aberrations S + C: 100 metaphases. The method, then:
The clastogenetic effect of rhein and of 2,6-anthraquinonedisulfonic acid, was evaluated using the test of the induction of chromosomal aberrations in cell cultures of chinese hamster ovary (CHO). In this test, the cell line was treated with the tested substances and with suitable controls, in the presence of a metabolic activation system for four hours. After that, the cell in growth exponential phase were treated with colchicine (Colcemid^R) for 90 minutes, so as to obtain a significant number of cells in metaphase and to recover them for the preparation of the chromosome suspension. As the positive standard, cyclophosphamide was used (1-5-10-12.5-25 μg/ml).
The toxicity of the tested compounds was evaluated by means of the assay of the efficiency of plating, treating the cells for four hours, then seeding them at a concentration of 200 cells/5 ml of fresh culture medium.
On the ground of the results obtained by means of this test, dosages were selected for the treatment in the test of induction of chromosomal aberrations, so as not to exceed, with the highest dosage, 50% toxicity levels.
The chromosomal aberrations were recorded describing the type of structural damage. The numeric aberrations and gaps were discarded. Metaphases showing a good chromosomal opening, a good staining and an acceptable chromosome number (20±2) were selected. For statistical evaluations of the results, the quadratic Chi test was used.

The conditions of data set [4]: background art (U.S. Pat. No. 4,244,968); cited from earlier work.
For data set [5] the following is noted: background art; cited from earlier work.
The next data set deals with ceruloplasmin. Conditions: acute phase of arthritis inflammation; background art; cited from earlier work.
[6] abbreviates: M (mean of experiments 1-3), read-out: % Inhibition.
[7] abbreviates: experiment n. 1, read-out: % Inhibition.
Setting [8] is: experiment n. 2, read-out: % Inhibition.
Where [9] appears, read: experiment n. 3, read-out: % Inhibition.
[10] abbreviates: 20 mg/kg orally, ten days, right paw.

Like-named read-outs stand apart in the source and are kept apart here.

T1 sequence (P07711 114-288 limits assumed): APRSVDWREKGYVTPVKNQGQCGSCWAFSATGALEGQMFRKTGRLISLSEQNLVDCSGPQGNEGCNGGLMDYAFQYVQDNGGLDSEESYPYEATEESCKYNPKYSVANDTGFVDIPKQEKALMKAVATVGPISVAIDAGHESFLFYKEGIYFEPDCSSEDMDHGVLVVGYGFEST
T1 sequence (P07711 292-333 limits assumed): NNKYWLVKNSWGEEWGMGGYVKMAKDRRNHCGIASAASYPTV

With `O=C1c2cccc(S(=O)(=O)O)c2C(=O)c2cccc(S(=O)(=O)O)c21` [1,5-anthraquinonedisulfonic acid, Anthraquinone-1,5-disulfonic acid], the inhibition at 1 µM on human cathepsin L (M (mean of tests 1-3)) turned out to be 8.1%; on human cathepsin L (test n. 1) it was 10.5%; against human cathepsin L (test n. 2), 8.4%; on human cathepsin L (test n. 3) it was 5.5%; on human cathepsin B (setting [6]), 3.4%; on human cathepsin B (setting [7]), 4.1%. Moreover, the inhibition at 1 µM at human cathepsin B (setting [8]) was 3.6%; at human cathepsin B (setting [9]), 2.5%. The inhibition at 10 µM against human cathepsin L (M (mean of tests 1-3)) worked out at 54.3%; against human cathepsin L (test n. 1), 48.6%; against human cathepsin L (test n. 2), 60.5%; at human cathepsin L (test n. 3), 53.9%; at human cathepsin B (setting [6]) it was 44.4%; at human cathepsin B (setting [7]) it was 55.1%. Further, the inhibition at 10 µM on human cathepsin B (setting [8]) was 36.6%; on human cathepsin B (setting [9]), 41.6%. Moreover, in data set [1], the “% Reduction (effect on copper "scavenging" action)” value (from here on “% Reduction”) is listed as 4%. In addition, the inhibition at 5 µM on human cathepsin B (setting [6]) is 9.6%; at human cathepsin B (setting [7]), 10.3%; on human cathepsin B (setting [8]), 7.2%; on human cathepsin B (setting [9]) it was 11.4%.

Consider `O=C1c2ccccc2C(=O)c2c1cccc2S(=O)(=O)O` [1-AQ, 1-anthraquinonesulfonic acid], for which, in data set [1], the “inhibition of copper "scavenging" effect (in words)” value is “nearly inactive” and the “% Reduction” value is reported as 3%.

Consider `O=C1c2ccc(S(=O)(=O)O)cc2C(=O)c2ccc(S(=O)(=O)O)cc21` [2,6-anthraquinonedisulfonic acid], for which the inhibition at 1 µM against human cathepsin L (M (mean of tests 1-3)) amounted to 35.6%; on human cathepsin L (test n. 1) it was 39.6%; on human cathepsin L (test n. 2) it was 31.4%; against human cathepsin L (test n. 3), 35.8%; at human cathepsin B (M (mean of experiments 1-3)), 40.7%; on human cathepsin B (experiment n. 1), 43.7%. For the same compound, the inhibition at 1 µM against human cathepsin B (experiment n. 2) stood at 33.7%; on human cathepsin B (experiment n. 3), 38.5%. Also, the inhibition at 10 µM at human cathepsin L (M (mean of tests 1-3)) worked out at 94.5%; against human cathepsin L (test n. 1), 92.1%; at human cathepsin L (test n. 2) it was 96.5%; against human cathepsin L (test n. 3), 94.8%; on human cathepsin B (M (mean of experiments 1-3)), 94.9%; on human cathepsin B (experiment n. 1), 98.9%. Moreover, the inhibition at 10 µM on human cathepsin B (experiment n. 2) came to 98.2%; against human cathepsin B (experiment n. 3), 87.7%. Also, the “inhibition (reduction) of the increase in the volume of the left rear paw” value (from here on “inhibition (reduction) of the increase”) in data set [2] (20 mg/kg orally, ten days) is recorded as 18.6%. Besides, the “inhibition of the increase in the volume of the right paw” value in data set [2] (setting [10]) was 67.5%. Further, the “Volume increase in the oedema after 15 days, left paw” value (“Volume increase … left paw” for short) in data set [2] amounted to 205 ± 41. For the same compound, the “Volume increase in the oedema after 15 days, right paw” value (“Volume increase … right paw” for short) in data set [2] turned out to be 25 ± 20. Besides, the Metaphases with aberrations amounted to 2 in data set [3] (50 μg/ml, 100 total metaphases, N.S.); 4 in data set [3] (100 μg/ml, 100 total metaphases, N.S.); 8 in data set [3] (150 μg/ml, 100 total metaphases, N.S.); 8 in data set [3] (200 μg/ml, 100 total metaphases, N.S.); 6 in data set [3] (250 μg/ml, 100 total metaphases, N.S.). The “induction of chromosomal aberrations (in words)” value in data set [3] (50-250 μg/ml) was “induces no chromosomal aberrations”. Also, the inhibition at 5 µM stood at 70.1% against human cathepsin B (M (mean of experiments 1-3)), 68.5% on human cathepsin B (experiment n. 1), 65.8% against human cathepsin B (experiment n. 2) and 76% against human cathepsin B (experiment n. 3).

In the case of `O=C1c2ccccc2C(=O)c2cc(S(=O)(=O)O)ccc21` [2-AQ, 2-anthraquinonesulfonic acid], in data set [1], the “inhibition of copper "scavenging" effect (in words)” value was “nearly inactive” and the “% Reduction” value was determined as 5%.

With `O=P1(N(CCCl)CCCl)NCCCO1` (centres unmarked) [CPS, Cyclophosphamide], the Metaphases with aberrations in data set [3] (1 μg/ml, 100 total metaphases, N.S.) came out at 10; in data set [3] (5 μg/ml, 100 total metaphases, P < 0.001), 25; in data set [3] (10 μg/ml, 32 total metaphases, P < 0.001, control 13 of 220), 12. Further, the “Aberrations complex (C)” value in data set [3] (CPS 12.5 μg/ml) is listed as 44; in data set [3] (CPS 25 μg/ml, control 4 of 400), 87. In addition, the “Aberrations simple (S)” value came out at 0 in data set [3] (CPS 12.5 μg/ml) and 0 in data set [3] (CPS 25 μg/ml, control 8 of 400). The “Aberrations S + C” value was found to be 44 in data set [3] (CPS 12.5 μg/ml, P < 0.001) and 87 in data set [3] (CPS 25 μg/ml, P < 0.001, control 12 of 400).

As to `CC(=O)Oc1cccc2c1C(=O)c1c(OC(C)=O)cc(C(=O)O)cc1C2=O` [Diacetylrhein, diacetylrhein, reference compound], in data set [4], the calcium chelation result is “calcium chelating agent”. Moreover, the copper chelation result in data set [5] is on record as “copper chelating agent”. Further, in data set [2] (20 mg/kg orally, ten days), the “inhibition (reduction) of the increase” value was 8.3%. In addition, the “effect on the increase in the volume of the right paw (in words)” value in data set [2] (setting [10]) was “complete lack in activity”. Moreover, in data set [2] (20 mg/kg orally, tibio-tarsal articulation), the “formation of fibrous tissue in the articulation (histological examination)” value was “remarkably present”. Besides, in data set [2], the “Volume increase … left paw” value came to 231 ± 22 and the “Volume increase … right paw” value is given as 92 ± 30. The “inhibition of the formation of ceruloplasmin” value in the data set with ceruloplasmin is listed as “inhibits the formation of ceruloplasmin”.

Take `CCOc1ccc(NS(=O)(=O)c2ccc3c(c2)C(=O)c2ccc(S(=O)(=O)Nc4ccc(OCC)cc4)cc2C3=O)cc1` [N,N'-(p-Ethoxyphenyl)-2,6-anthraquinonedisulfonamide]: the inhibition at 1 µM stood at 8.8% at human cathepsin L (M (mean of tests 1-3)); 8.5% on human cathepsin L (test n. 1); 7.1% against human cathepsin L (test n. 2); 10.9% against human cathepsin L (test n. 3); 19% at human cathepsin B (setting [6]); 23.7% at human cathepsin B (setting [7]). The inhibition at 1 µM at human cathepsin B (setting [8]) was found to be 18.6%; on human cathepsin B (setting [9]) it was 14.8%. Moreover, the inhibition at 10 µM against human cathepsin L (M (mean of tests 1-3)) is 55.2%; against human cathepsin L (test n. 1), 53.6%; against human cathepsin L (test n. 2), 48.1%; against human cathepsin L (test n. 3) it was 63.8%; on human cathepsin B (setting [6]), 80.2%; at human cathepsin B (setting [7]), 76.6%. The results for the inhibition at 10 µM at human cathepsin B (setting [8]) and at human cathepsin B (setting [9]) were 80.6% and 83.4%, respectively.

Turning to `CCNS(=O)(=O)c1ccc2c(c1)C(=O)c1ccc(S(=O)(=O)NCC)cc1C2=O` [N,N'-Diethyl-2,6-anthraquinonedisulfonamide], the “inhibition (reduction) of the increase” value in data set [2] (20 mg/kg orally, ten days) is on record as 21.4%. The “inhibition of the increase in the volume of the right paw” value in data set [2] (setting [10]) was found to be 62.3%. For the same compound, in data set [2], the “Volume increase … left paw” value stood at 198 ± 31 and the “Volume increase … right paw” value is reported as 29 ± 12.
